Results: US20110319611A1, “BENZOXAZINONE COMPOUND, METHOD FOR PRODUCING THE SAME, AND PHARMACEUTICAL COMPOSITION CONTAINING THE SAME” (Chang Gung University, priority 2010, published 2011)

Columns and labels:
Human neutrophils [1] = test: O2•− generation assay (SOD-inhibitable reduction of ferricytochrome c) in FMLP/CB-activated neutrophils; assay type: cell-based; details: Neutrophil, absorbance 550 nm, mean ± S.E.M. (n = 3)
Protocol: (§1) Human neutrophils were prepared by the following procedure. […] The precipitate thus obtained was treated with a hypotonic solution, i.e., 0.2% NaCl, to lyse erythrocytes, followed by removal of the lysed erythrocytes using centrifugation at 200 g and 4° C. for 8 minutes so as to obtain the neutrophils. […] The neutrophil suspension was stored at 4° C. before use.
The O2^•− generation assay was based on the superoxide dismutase (SCD)-inhinitable reduction of ferricytochrome c. […] The neutrophils obtained in the section of “3. […] In a control group, 100% DMSO was used to substitute the compound solution. Moreover, in the positive control group, diphenyleneiodonium (DPI) was used to substitute the compound solution. The reacted mixture was added with 1.5 μl of cytochalasin B (CB, […]) and was incubated for […], followed by addition with 1.5 μl of formyl-L-methionyl-L-leucyl-L-phenylalanine (FMLP, 100 μM) and reaction for 10 minutes to activate neutrophils.

Human neutrophils [2] = test: Release of human neutrophil elastase (NE) from FMLP/CB-activated neutrophils; assay type: cell-based; details: substrate MeO-Suc-Ala-Ala-Pro-Val-p-nitroanilide, 405 nm, mean ± S.E.M. (n = 3)
Protocol: as §1
The neutrophils obtained in the section of “3. […] In a control group, 100% DMSO was used to substitute the compound solution. […] The reacted mixture was added with 1.5 μl of cytochalasin B (CB, 0.5 mg/ml) and was incubated for 3 minutes, followed by addition with 1.5 μl of formyl-L-methionyl-L-leucyl-L-phenylalanine (FMLP, 100 μM) and reaction for 10 minutes to activate neutrophils.

[3] = tested on: lung injury caused by trauma-hemorrhagic shock; test: Water content assay of lung tissue after trauma-hemorrhagic shock; assay type: in vivo, rat
Protocol: (§2) Specifically, the effects of compound E7 on water content in lung tissues and myeloperoxidase (MPO) activity were measured.
(§3) In brief, male Sprague-Dawley (S.D.) rats having a body weight ranging from 275 to 325 g were obtained from National Laboratory Animal Center. The rats were randomly divided into four groups including experimental groups 1 and 2 and sham-operated groups 1 and 2. Each group included 8 rats. All rats were raised in an air-conditioned room with the following conditions: a light-dark cycle of 12-14 hours of illumination and 10-12 hours of darkness, 20-26° C., and relative humidity of 40-60%. The rats were free to have sufficient drinking water and feed and lived in the aforesaid room for one week to adapt to the environment. Before beginning the experiments, the rats were starved overnight while allowed to have sufficient drinking water ad libitum. The rats were anesthetized by isoflurane (Attane, Minrad, Bethlehem, Pa.) inhalation and were subjected to 5-cm midline laparotomy in the abdomen. […] The total amount of the blood volume of maximum bleed-out was recorded. […]
The left upper lobe was weighted and the weight was referred to as “wet weight”. The left upper lobe was then dried at 80° C. for 24 hours, and the weight, referred to as dry weight, thereof was measured. […]
The data were analyzed using the GraphPad Prism software (GraphPad Software, San Diego, Calif.). […]

[4] = tested on: lung injury caused by trauma-hemorrhagic shock; test: Myeloperoxidase (MPO) activity in lung tissue after trauma-hemorrhagic shock; assay type: in vivo, rat
Protocol: as §2, §3
Activity of MPO was determined based on a method disclosed in H. P. Yu et al., Biochem. Pharmacol., 78: 983-992, 2009. […]

[5] = target: T1, human neutrophil elastase (Homo sapiens, UniProt P08246); test: Inhibition of NE activity in supernatant of activated neutrophils; assay type: biochemical; details: supernatant of FMLP/CB-activated human neutrophils containing NE; mean ± S.E.M. (n = 3)
T1 construct: endogenous in cells; cell-free supernatant used
T1 sequence (P08246 30-267): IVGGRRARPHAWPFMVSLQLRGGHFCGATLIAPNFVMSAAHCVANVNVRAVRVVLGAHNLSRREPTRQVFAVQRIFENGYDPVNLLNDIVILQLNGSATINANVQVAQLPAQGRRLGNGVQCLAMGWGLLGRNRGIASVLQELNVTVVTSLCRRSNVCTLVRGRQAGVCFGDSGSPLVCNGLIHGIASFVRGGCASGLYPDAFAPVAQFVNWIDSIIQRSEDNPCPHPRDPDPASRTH
Description: The neutrophils obtained in the section of “3. […] In a control group, 100% DMSO was used to substitute the compound solution. Moreover, in the positive control group, PMSF was used to substitute the compound solution.

human NE = target: T2, human NE (Homo sapiens, UniProt P08246); test: Inhibition of commercially available pure neutrophil elastase; assay type: biochemical; details: 0.0075 U/ml human NE (Sigma), 96-well plate, 30 minutes, 405 nm
T2 construct: purchased Sigma, St. Louis, Mo; USA
T2 sequence (P08246 30-267): T1 sequence (P08246 30-267)
Description: In a control group, 0.1% DMSO was used to substitute the compound solution. Moreover, in the positive control group, PMSF was used to substitute the compound solution.

[6] = sham-operated rats, E7 (group 2) vs vehicle (group 1)

Row | SMILES | IC50 (Human neutrophils [1]) [µM] | IC50 (Human neutrophils [2]; Neutrophil) [µM] | further results
1 | O=c1oc(-c2ccccc2F)nc2c(Cl)cccc12 [CE1, 8-chloro-2-(2′-fluorophenyl)-4H-benzo[d][1,3]oxazin-4-one] | > 25 | 6.03 ± 0.65 | 
2 | O=c1oc(-c2ccccc2Cl)nc2c(Cl)cccc12 [CE2, 8-chloro-2-(2′-chlorophenyl)-4H-benzo[d][1,3]oxazin-4-one] | 8.66 ± 1.44 | 1.89 ± 1.1 | 
3 | O=c1oc(-c2ccccc2Br)nc2c(Cl)cccc12 [CE3, 8-chloro-2-(2′-bromophenyl)-4H-benzo[d][1,3]oxazin-4-one] | 6.56 ± 3.09 | 1.69 ± 0.3 | 
4 | Cc1ccccc1-c1nc2c(Cl)cccc2c(=O)o1 [CE4, 8-chloro-2-(2′-methylphenyl)-4H-benzo[d][1,3]oxazin-4-one] | 17.5 ± 2.69 | > 25 | 
5 | COc1ccccc1-c1nc2c(Cl)cccc2c(=O)o1 [CE5, 8-chloro-2-(2′-methoxylphenyl)-4H-benzo[d][1,3]oxazin-4-one] | 10 ± 0.59 | 1.91 ± 0.14 | 
6 | O=c1oc(-c2ccccc2Br)nc2cccc(Cl)c12 [Compound E7, 5-chloro-2-(2′-bromophenyl)-4H-benzo[d][1,3]oxazin-4-one] |  |  | water content in lung tissue (wet weight/dry weight) [3, 6]: no significant difference; water content in lung tissue (wet weight/dry weight) ([3]; trauma-hemorrhage rats, E7 (experimental group 2) vs vehicle (experimental group 1), 24 hours after resuscitation, p<0.001): significantly reduced; MPO activity in lung tissue [4, 6]: no significant difference; MPO activity in lung tissue ([4]; trauma-hemorrhage rats, E7 (experimental group 2) vs vehicle (experimental group 1), 24 hours after resuscitation, p<0.01): significantly reduced
7 | c1ccc2c(c1)[I+]c1ccccc1-2 [DPI, diphenyleneiodonium] | 0.97 ± 0.395 |  | 
8 | CC(C)C[C@H](NC(=O)N[C@H](C(=O)N[C@@H](CCC(N)=O)C(=O)N[C@@H](C)C=O)[C@@H]1CCNC(=N)N1)C(=O)O [Elastatinal, elastatinal] |  | 56.5 ± 9.13 | 
9 | O=S(=O)(F)Cc1ccccc1 [PMSF, phenylmethylsulfonyl fluoride] |  |  | IC50 (Human neutrophils [2]): 110 ± 25 µM; IC50 [5]: 95.2 ± 19.2 µM; IC50 (human NE): 52.2 ± 1.07 µM
